Measurements as given in ChEMBL document CHEMBL4190382, “Targeting lysine specific demethylase 4A (KDM4A) tandem TUDOR domain - A fragment based approach” (Bioorg Med Chem Lett, 2018).
Each block holds one compound with its values, some of them ahead of it. Activity calls are given as the source filed them. The rule behind the calls is not given here. Square brackets hold non-standard residues; d marks the D form. Peptide text beside a SMILES is read from it. Lys(Me3) = C[N+](C)(C)CCCC[C@H](N)C(=O)O

What was measured:
[1] = biological target: T1, Lysine-specific demethylase 4A (Homo sapiens, UniProt O75164); assay: Binding affinity to thrombin cleavable N-terminal 6His tagged and 13C-IVLM labeled human KDM4A tandem TUDOR domain (897 to 1011 residues) expressed in Escherichia coli BL21(DE3)-T1R by ITC method
T1 sequence (O75164 whole entry): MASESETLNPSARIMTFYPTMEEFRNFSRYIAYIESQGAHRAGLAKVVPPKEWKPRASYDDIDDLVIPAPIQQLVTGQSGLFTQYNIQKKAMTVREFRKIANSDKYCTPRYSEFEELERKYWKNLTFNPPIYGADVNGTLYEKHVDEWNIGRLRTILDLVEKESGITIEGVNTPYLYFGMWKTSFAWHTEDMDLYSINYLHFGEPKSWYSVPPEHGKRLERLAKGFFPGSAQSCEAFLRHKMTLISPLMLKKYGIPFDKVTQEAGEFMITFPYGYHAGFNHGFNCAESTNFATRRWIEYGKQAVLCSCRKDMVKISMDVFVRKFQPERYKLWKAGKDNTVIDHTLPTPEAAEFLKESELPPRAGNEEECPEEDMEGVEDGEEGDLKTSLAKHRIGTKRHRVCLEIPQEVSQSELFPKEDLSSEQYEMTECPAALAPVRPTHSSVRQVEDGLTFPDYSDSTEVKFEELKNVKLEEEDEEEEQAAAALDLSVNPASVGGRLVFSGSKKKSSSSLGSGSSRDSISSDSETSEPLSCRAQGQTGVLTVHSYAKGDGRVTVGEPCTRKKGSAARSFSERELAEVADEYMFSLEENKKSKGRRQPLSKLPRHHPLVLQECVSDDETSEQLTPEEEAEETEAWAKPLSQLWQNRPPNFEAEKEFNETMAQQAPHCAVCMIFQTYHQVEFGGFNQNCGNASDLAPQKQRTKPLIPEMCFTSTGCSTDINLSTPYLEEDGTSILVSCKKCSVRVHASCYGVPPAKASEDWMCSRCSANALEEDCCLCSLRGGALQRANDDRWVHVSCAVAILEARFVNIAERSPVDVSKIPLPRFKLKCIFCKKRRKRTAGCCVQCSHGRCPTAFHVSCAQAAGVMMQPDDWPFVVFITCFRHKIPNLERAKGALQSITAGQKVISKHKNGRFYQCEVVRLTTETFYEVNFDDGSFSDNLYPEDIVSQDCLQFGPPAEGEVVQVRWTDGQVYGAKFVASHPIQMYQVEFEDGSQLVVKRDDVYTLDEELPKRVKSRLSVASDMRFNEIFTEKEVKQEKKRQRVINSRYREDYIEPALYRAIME

[2] = biological target: T2, Lysine-specific demethylase 4A (Homo sapiens) (UniProt O75164); assay: (§1) Binding affinity to thrombin cleavable N-terminal 6His-tagged and 13C-IVLM labeled human KDM4A tandem TUDOR domain (897 to 1011 residues) expressed in Escherichia coli BL21(DE3)-T1R at 1 mM by 13C HSQC NMR spectroscopy
T2 sequence (whole entry): T1 sequence (O75164 whole entry)

[3] = biological target: T1, Lysine-specific demethylase 4A; assay: Inhibition of NanoLuc-KDM4A-TUDOR domain (unknown origin) binding to Histone H3.3-HaloTag expressed in 293T cells incubated for 18 hrs by Nano-BRET based target engagement assay; assay type: cell-based
[4] = biological target: T1, Lysine-specific demethylase 4A; assay: as §1

- Kd [1]: 4.7 µM
Compound: CC(C)C[C@H](NC(=O)[C@@H](NC(=O)[C@H](CCCC[N+](C)(C)C)NC(=O)[C@H](CCCNC(=N)N)NC(=O)[C@H](Cc1cnc[nH]1)NC(=O)[C@H](CCCNC(=N)N)NC(=O)[C@@H](N)CCCCN)C(C)C)C(=O)N[C@@H](CCCNC(=N)N)C(=O)N[C@@H](CC(=O)O)C(=O)N[C@@H](CC(N)=O)C(=O)O (H-KRHR[Lys(Me3)]VLRDN-OH)

- Activity [2]: Active
- Kd [1]: 3 µM
Compound: C[C@H](N)C(=O)N[C@@H](CCCNC(=N)N)C(=O)N[C@H](C(=O)N[C@@H](CCCC[N+](C)(C)C)C(=O)N[C@@H](CCC(N)=O)C(=O)N[C@H](C(=O)N[C@@H](C)C(=O)N[C@@H](CCCNC(=N)N)C(=O)N[C@@H](CCCCN)C(=O)N[C@@H](CO)C(=O)O)[C@@H](C)O)[C@@H](C)O

- EC50 [3]: 1220 µM
Compound: CN(C)C[C@@H]1C2CCC(c3ccccc3)(C2)[C@@H]1O (stereo not given in full)

- Kd [4]: 80 µM
Compound: CN(C)CC1C2CCC(c3ccccc3)(C2)C1O (stereo not given)
